13 compounds from PubChem BioAssay (NCI) can be followed below.

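Five concentrations, 48 hours, 96-well plates. At the GI50, growth is halved. TGI: concentration producing complete growth inhibition.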 A value given as a limit tells only on which side of the number the result lay.

Experiment in all cases: inhibition of tumour cell growth, NCI panel, 48 h
Test [1] concerns A498 renal.
For test [2], the system named is CCRF-CEM leukemia.
The subject of test [3] is COLO 205 colon.
In test [4] the test system is EKVX NSCLC.
In test [5] the test system is HCT-15 colon.
The subject of test [6] is NCI-H522 lung.
The test system of test [7] is OVCAR-3 ovarian.
Test [8] concerns SN12C renal.
The test system of test [9] is UO-31 renal.
Test [10] deals with SW-620 colon.

Take `COC(=O)C1=C(C(=O)ON)C2C=CC1(C(Cc1ccccc1)Nc1ccccc1)O2` (stereo not given): the GI50 in test [1] is 14.7 µM; in [2], 2.23 µM; in test [3] it was 1.78 µM; in test [4], 1.75 µM; in test [5], 1.73 µM; in test [6], 1.45 µM. For the same compound, the GI50 in [7] is 1.72 µM; in [8] it was 1.99 µM; in test [9], 1.47 µM. The TGI stood at 27.9 µM in test [1]; 16.9 µM in [2]; 3.33 µM in [3]; 3.51 µM in test [4]; 3.5 µM in test [5]; 2.98 µM in [6]. In addition, the TGI was found to be 3.11 µM in [7], 4.45 µM in [8] and 2.8 µM in test [9].

For `O=C1C(=O)c2ccccc2C(O)=C1CC=C(Br)Br`, the GI50 in [1] was 6.21 µM; in [2] it was 2.7 µM; in test [3], 10.3 µM; in test [5], 0.368 µM; in test [6], 5.28 µM; in [7], 8.75 µM. The values for the GI50 in test [8], in test [10] and in test [9] were 5.7 µM, 3.07 µM and 6.13 µM, respectively. Further, the TGI was 31.3 µM in [1]; above 100 µM in [2]; 24.5 µM in test [3]; above 100 µM in test [5]; 29.9 µM in test [6]; 34.7 µM in test [7]. Besides, the values for the TGI in test [8], in [10] and in [9] were 77.9 µM, above 100 µM and 62.1 µM, respectively.

In the case of `O=c1ccn(C2OC(CO/N=C/c3ccc(O)c(O)c3O)C(O)C2O)c(=O)[nH]1` (stereo not given), the GI50 in [1] is 15.4 µM; in [3], 14.7 µM; in test [4], 33.9 µM; in test [5] it was 20.5 µM; in [6], 50.6 µM; in test [7], 13.6 µM. In addition, the GI50 in test [8] is 20.1 µM; in test [10] it was 19.1 µM; in test [9], 17.2 µM. In addition, the TGI in [1] is 39.2 µM; in [3], 30.6 µM; in test [4], above 100 µM; in test [5] it was 50.4 µM; in test [6] it was above 100 µM; in test [7], 27.7 µM. In addition, the TGI was 38.7 µM in [8], 35.9 µM in test [10] and 31.6 µM in test [9].

For the compound `COc1ccccc1CCN=C1NC(=O)/C(=C/c2ccc3ncccc3c2)S1`, the GI50 in [1] is 3.45 µM; in test [2] it was 5.45 µM; in test [3], 2.86 µM; in [5], 1.32 µM; in [6], 2.36 µM; in [7] it was 4.99 µM. Also, the GI50 is 6.93 µM in test [8], 1.32 µM in [10] and 5.25 µM in [9]. The TGI was 12.3 µM in test [1]; 23 µM in test [2]; above 19.6 µM in [3]; above 25 µM in [5]; 7.54 µM in [6]; 12.2 µM in [7]. For the same compound, the figures for the TGI in test [8], in test [10] and in test [9] were above 25 µM, above 25 µM and 16.3 µM, respectively.

Regarding `C/C(=N\Nc1cc(C)c2cc(C)ccc2n1)c1ccccn1`, the GI50 in test [1] is 0.134 µM; in test [2], below 0.0276 µM; in test [3] it was below 0.0201 µM; in test [6], below 0.0472 µM; in test [7], below 0.0206 µM; in test [8], 0.0607 µM. For the same compound, the GI50 in test [9] was below 0.0447 µM. The TGI was 3.68 µM in test [1]; 0.356 µM in [2]; 1.17 µM in [3]; 1.93 µM in test [5]; 0.124 µM in [6]; 1.31 µM in test [7]. In addition, the TGI in test [8] was determined as 4.12 µM; in test [10] it was 1.98 µM; in test [9], 0.322 µM.

As for `COc1cc(-c2nn(-c3cccc(NC(=O)Nc4cc(C(F)(F)F)cc(C(F)(F)F)c4)c3)cc2-c2ccncc2)ccc1Cl`, the GI50 was 0.587 µM in test [1]; 0.498 µM in [2]; 0.817 µM in test [3]; 0.756 µM in [5]; 0.356 µM in test [6]; 0.293 µM in [7]. The GI50 in test [8] is 0.471 µM; in test [10], 0.494 µM; in test [9], 0.612 µM. Further, the TGI came to 2.13 µM in [1]; 2.79 µM in test [2]; 1.6 µM in [3]; 2.97 µM in [5]; 1.43 µM in [6]; 1.07 µM in test [7]. Further, the TGI in test [8] was determined as 1.96 µM; in [10], 2.94 µM; in [9] it was 1.52 µM.

As for `CC(C)[C@H](CO)Nc1nc(Nc2ccc(C(=O)NCCNS(=O)(=O)c3cccc4c(N(C)C)cccc34)c(Cl)c2)c2ncn(C(C)C)c2n1`, the GI50 was 1.83 µM in [1]; 3.01 µM in test [2]; 1.76 µM in [3]; 4.29 µM in test [5]; 2.19 µM in test [6]; 2.65 µM in [7]. Besides, the GI50 is 2.81 µM in test [8], 2.56 µM in [10] and 9.78 µM in [9]. Also, the TGI in test [1] is 6.1 µM; in test [2] it was above 100 µM; in test [3] it was 3.47 µM; in [5], above 100 µM; in [6], 6.1 µM; in test [7], above 66.9 µM. Further, the TGI in [8], in test [10] and in test [9] was above 100 µM in each case.

On to `COc1c(OC)c(OC)c2c(c1OC)c(=O)c1ccccc1n2C`, for which the TGI in [1], in test [3], in test [4], in [5], in [6] and in [7] was above 100 µM throughout. For the same compound, the TGI in test [8], in test [10] and in test [9] was above 100 µM each time.

As for `N/C(=C\c1ccc(OCc2ccccc2)c(OCc2ccccc2)c1[N+](=O)[O-])C(=O)O`, the TGI in test [1], in [2], in test [3], in [4], in test [6] and in test [7] was above 100 µM each time. The TGI in test [8], in [10] and in [9] was above 100 µM throughout.

For the compound `Clc1cc(Cc2cc(Cl)c(Cl)c3c2OCOC3)c2c(c1Cl)COCO2`, the TGI in [1] is 80.4 µM; in test [2], above 100 µM; in test [3], above 100 µM; in [5], above 100 µM; in test [6], above 100 µM; in [7], 69 µM. Further, the TGI in test [8], in test [10] and in test [9] was above 100 µM in each case.

On to `O=C(CNc1ccc2c(c1)C(=O)c1ccccc1C2=O)Nc1ccc2c(c1)C(=O)c1ccccc1C2=O`, for which the GI50 in [1] was 1.62 µM; in test [3], 1.26 µM; in [4] it was 1.88 µM; in [5], 0.312 µM; in test [6] it was 0.153 µM; in test [7], 0.71 µM. In addition, the GI50 is 0.293 µM in test [8], 0.186 µM in [10] and 1.67 µM in test [9]. For the same compound, the TGI in test [1] is 3.16 µM; in test [3], 2.94 µM; in test [4] it was 4.02 µM; in test [5], 0.972 µM; in test [6], 0.318 µM; in test [7], 1.83 µM. For the same compound, the TGI is 1 µM in test [8], 0.371 µM in test [10] and 3.1 µM in [9].

As for `COC1CC2CCC(C)C(O)(O2)C(=O)C(=O)N2CCCCC2C(=O)OC(C(C)CC2CCC(O)C(OC)C2)CC(=O)C(C)C=C(C)C(O)C(OC)C(=O)C(C)CC(C)/C=C/C=C/C=C1C` (stereo not given), the GI50 is below 0.005 µM in test [1]; 5.64 µM in test [3]; below 0.005 µM in test [4]; 0.0813 µM in [5]; 1.99 µM in test [6]; 4.49 µM in [7]. The GI50 was 5.24 µM in test [8], 5.39 µM in test [10] and below 0.005 µM in test [9]. Also, the TGI in test [1] came out at 6.86 µM; in [3], 12.9 µM; in test [4] it was 13.7 µM; in test [5], 14.7 µM; in [6], 11.3 µM; in [7], 10.9 µM. The TGI came out at 14.6 µM in [8], 14 µM in test [10] and 8.08 µM in test [9].

On to `O=C1NC(O)C(c2c[nH]c3ccccc23)=C1c1c[nH]c2ccccc12` (stereo not given), for which the GI50 in [1] was above 25 µM; in test [2], above 25 µM; in [3], above 25 µM; in test [5] it was 18.4 µM; in test [6], above 25 µM; in [7], above 25 µM. Besides, the GI50 in test [8] is above 25 µM; in [10], above 25 µM; in test [9], 15.7 µM. Further, the TGI in test [1], in [2], in test [3], in test [5], in [6] and in test [7] was above 25 µM each time. The TGI in test [8], in test [10] and in test [9] was above 25 µM in each case.
